# System: Blumeria graminis
# Assay: Test on preventive effect against wheat powdery mildew (seed treatment)
# Type: in vivo, Blumeria graminis on wheat (cultivar: Norin-61-go)
# Details: seed coating, first leaf, 7 days after inoculation; for Lesion area ratio (%): non-treated plot 90
# Text: 50 g of wheat seeds (cultivar: Norin-61-go), and predetermined amounts of an aqueous suspension containing pyriofenone 30% (WN) (tradename: PROPERTY FLOWABLE), an aqueous suspension containing fluazinam 50% (WN) (tradename: FROWNCIDE SC) and an aqueous suspension containing thiophanate-methyl 75% (WM) (tradename: TOPSIN M sol) so that the respective active ingredient amounts were as identified in Table 1 (g.a.i./100 kg seed), were put in a plastic bag, sufficiently stirred and air-dried to obtain seeds coated with a fungicidal composition. Ten seeds coated with a fungicidal composition were sown in a plastic pot (diameter: 7.5 cm, height: 6.8 cm, cylindrical black plastic pot, soil: culture soil). Wheat plants were cultivated in a greenhouse and at the 1-leaf stage, conidia of Blumeria graminis were dusted and inoculated, and the wheat plants were maintained in a constant temperature chamber at 20° C. The same operation was conducted with respect to seeds coated with the respective active ingredients individually, for comparison, as shown in Table 1. 7 days after the inoculation, the lesion area ratio on the first leaf was examined, and the control value was calculated based on the following formula. Further, theoretical values (control values) by use in combination were also calculated in accordance with the following Colby's formula. Control value=(1−a/b)×100 • a: lesion area ratio in treated plot • b: lesion area ratio in non-treated plot Colby's formula=(X+Y+Z)−(XY+YZ+ZX)/100+XYZ/10,000 • X: control value of component (a) used singly • Y: control value of component (b) used singly • Z: control value of component (c) used singly
# [1] = pyriofenone 30 g.a.i./100 kg seed
# [2] = fluazinam 3.3 g.a.i./100 kg seed
# [3] = fluazinam 10 g.a.i./100 kg seed
# [4] = thiophanate-methyl 23.3 g.a.i./100 kg seed
# [5] = thiophanate-methyl 35 g.a.i./100 kg seed
# [6] = thiophanate-methyl 70 g.a.i./100 kg seed
smiles,measurement,setting,value
"COc1cc(C)c(C(=O)c2c(OC)ncc(Cl)c2C)c(OC)c1OC [Pyriofenone, 3-(2,3,4-trimethoxy-6-methylbenzoyl)-5-chloro-2-methoxy-4-methylpyridine]",Control value,[1],44
same,Lesion area ratio (%),[1],50%
"O=[N+]([O-])c1cc(C(F)(F)F)c(Cl)c([N+](=O)[O-])c1Nc1ncc(C(F)(F)F)cc1Cl [Fluazinam, N-(3-chloro-5-trifluoromethyl-2-pyridyl)-2,6-dinitro-3-chloro-4-trifluoromethylaniline]",Control value,[2],0
same,Lesion area ratio (%),[2],90%
same,Control value,fluazinam 5 g.a.i./100 kg seed,0
same,Lesion area ratio (%),fluazinam 5 g.a.i./100 kg seed,90%
same,Control value,[3],0
same,Lesion area ratio (%),[3],90%
"COC(=O)NC(=S)Nc1ccccc1NC(=S)NC(=O)OC [Thiophanate-methyl, 1,2-di-(3-methoxycarbonyl-2-thioureido)benzene]",Control value,[4],0
same,Lesion area ratio (%),[4],90%
same,Control value,[5],33
same,Lesion area ratio (%),[5],60%
same,Control value,[6],44
same,Lesion area ratio (%),[6],50%

# — patent US10172357B2, “Fungicidal composition and method for controlling plant diseases” (ISHIHARA SANGYO KAISHA, LTD., priority 2015, dated 2019)
